How the values were obtained:
Assay type in all cases: functional
Prosopis farcta [1] = experiment: Herbicidal activity against Prosopis farcta assessed as shoot fresh weight at 1000 l/ha applied twice followed by harvest measured after vegetative regrowth (reference value: 3.53 metric tons/ha)
Prosopis farcta [2] = experiment: Herbicidal activity against Prosopis farcta assessed as shoot dry weight at 1000 l/ha applied once followed by harvest measured after vegetative regrowth (reference value: 1.593 metric tons/ha)
Prosopis farcta [3] = experiment: Herbicidal activity against Prosopis farcta assessed as shoot fresh weight at 1000 l/ha applied twice (reference value: 4.18 metric tons/ha)
Prosopis farcta [4] = experiment: Herbicidal activity against Prosopis farcta assessed as shoot dry weight at 1000 l/ha applied twice followed by harvest measured after vegetative regrowth (reference value: 2.784 metric tons/ha)
Prosopis farcta [5] = experiment: Herbicidal activity against Prosopis farcta assessed as shoot dry weight at 1000 l/ha applied twice (reference value: 1.528 metric tons/ha)
Prosopis farcta [6] = experiment: Herbicidal activity against Prosopis farcta assessed as shoot dry weight at 1000 l/ha applied once (reference value: 0.833 metric tons/ha)
Prosopis farcta [7] = experiment: Herbicidal activity against Prosopis farcta assessed as shoot fresh weight at 1000 l/ha applied once followed by harvest measured after vegetative regrowth (reference value: 2.062 metric tons/ha)
Prosopis farcta [8] = experiment: Herbicidal activity against Prosopis farcta assessed as shoot fresh weight at 1000 l/ha applied once (reference value: 1.72 metric tons/ha)

SMILES | Activity (Prosopis farcta [1]) [MT/ha] | Activity (Prosopis farcta [2]) [MT/ha] | Activity (Prosopis farcta [3]) [MT/ha] | Activity (Prosopis farcta [4]) [MT/ha] | Activity (Prosopis farcta [5]) [MT/ha] | Activity (Prosopis farcta [6]) [MT/ha] | Activity (Prosopis farcta [7]) [MT/ha] | Activity (Prosopis farcta [8]) [MT/ha]
Cc1cc(Cl)ccc1OC(C)C(=O)O (stereo unspecified) [MECOPROP] | 1.46 | 0.527 | 0.93 | 1.125 | 0.403 | 0.423 | 0.655 | 0.9
CCCCC(CC)COC(=O)COc1ccc(Cl)cc1Cl (stereo unspecified) | 0.1 | 0.213 | 0.8 | 0.063 | 0.365 | 0.625 | 0.277 | 1.33
CCOc1cc(Oc2ccc(C(F)(F)F)cc2Cl)ccc1[N+](=O)[O-] [OXYFLUORFEN] | 1.47 | 3.481 | 0.96 | 1.147 | 0.479 | 0.26 | 4.511 | 0.6
O=C(O)CNCP(=O)(O)O [GLYPHOSATE] | 1.23 | 0.317 | 0.71 | 0.976 | 0.32 | 0.491 | 0.432 | 1.05
C[n+]1ccc(-c2cc[n+](C)cc2)cc1 [PARAQUAT] | 0.91 | 0.647 | 0.93 | 0.764 | 0.404 | 0.593 | 0.757 | 1.27
O=C(O)COc1nc(Cl)c(Cl)cc1Cl [TRICLOPYR] | 0.05 | 0.231 | 1.07 | 0.05 | 0.461 | 0.567 | 0.301 | 1.21
CNC.O=C(O)COc1ccc(Cl)cc1Cl [2,4-D-Dimethylammonium] | 0.58 | 0.144 | 0.8 | 0.511 | 0.345 | 0.593 | 0.323 | 1.27

From ChEMBL document CHEMBL3046855, “Chemical control of Prosopis farcta (Banks and Sol.) Macbride in the Jordan Valley” (2007)
